The compounds below were run on FG2 (assay: Inhibition of cell adhesion in human FG2 cells assessed as decrease in cell adhesion to matrix incubated for 1 hr by crystal violet staining based assay). Settings: FG2, 1 h.
Format: functional

IC50 [nM]	SMILES
< 10000	Cc1ccnc(Nc2cccc(C(=O)NCC(=O)NC[C@H](NC(=O)c3c(Cl)cccc3Cl)C(=O)O)c2)c1
< 100	O=C(CNC(=O)c1cccc(NC2=NCC(F)(F)CN2)c1)NC[C@H](NC(=O)c1c(Cl)cc(-c2ccc3cn[nH]c3c2)cc1Cl)C(=O)O
< 100	O=C(CNC(=O)c1cccc(NC2=NCCCN2)c1)NC[C@H](NC(=O)c1c(Cl)cccc1Cl)C(=O)O
1000	CNc1cccc(C(=O)NCC(=O)NC[C@H](NC(=O)c2c(Cl)cc(-c3ccccc3)cc2Cl)C(=O)O)n1
< 100	O=C(CNC(=O)c1cccc(NC2=NCC(O)CN2)c1)NC[C@H](NC(=O)c1c(Cl)cc(-c2ccccc2)cc1Cl)C(=O)O (stereo partly drawn)
< 100	N=C(N)Nc1cccc(C(=O)NCC(=O)NC[C@H](NC(=O)c2c(Cl)cc(-c3ccccc3)cc2Cl)C(=O)O)c1
< 10000	N#C/N=C(\N)Nc1cccc(C(=O)NCC(=O)NC[C@@H](NC(=O)c2c(Cl)cccc2Cl)C(=O)O)c1
< 10000	N=C(N)Nc1ccc2ccn(CCC(=O)NC[C@H](NC(=O)c3c(Cl)cccc3Cl)C(=O)O)c2c1
< 100	O=C(CNC(=O)c1cccc(NC2=NCCCN2)c1)NC[C@H](NC(=O)c1c(Cl)cc(-c2ccccc2)cc1Cl)C(=O)O
101	C/N=C(\NC)Nc1cccc(C(=O)NCC(=O)NC[C@H](NC(=O)c2c(Cl)cc(-c3ccccc3)cc2Cl)C(=O)O)c1
< 100	N#Cc1cc(NC(=N)N)cc(C(=O)NCC(=O)NC[C@H](NC(=O)c2c(Cl)cc(-c3ccccc3)cc2Cl)C(=O)O)c1
< 100	O=C(CNC(=O)c1cccc(NC2=NCCCS2)c1)NC[C@H](NC(=O)c1c(Cl)cc(-c2ccccc2)cc1Cl)C(=O)O
< 100	CS(=O)(=O)c1ccc(-c2cc(Cl)c(C(=O)N[C@@H](CNC(=O)CNC(=O)c3cccc(NC(=N)N)c3)C(=O)O)c(Cl)c2)cc1
< 100	O=C(CNC(=O)c1cccc(NC2=NCC(F)CN2)c1)NC[C@H](NC(=O)c1c(Cl)cc(N2CCS(=O)(=O)CC2)cc1Cl)C(=O)O (stereo partly drawn)
< 100	N=C(N)Nc1cccc(C(=O)NCC(=O)NC[C@H](NC(=O)c2c(Cl)cc(N3CCOCC3)cc2Cl)C(=O)O)c1
< 100	N=C(N)Nc1cccc(C(=O)NCC(=O)NC[C@H](NC(=O)c2c(Cl)cccc2Cl)C(=O)O)c1
100	N#C/N=C(\N)Nc1cccc(C(=O)NCC(=O)NC[C@H](NC(=O)c2c(Cl)cccc2Cl)C(=O)O)c1
101	CN(CC(=O)NC[C@H](NC(=O)c1c(Cl)cc(-c2ccccc2)cc1Cl)C(=O)O)C(=O)c1cccc(NC(=N)N)c1
< 100	O=C(CNC(=O)c1cccc(NC2=NCC(F)CN2)c1)NC[C@H](NC(=O)c1c(Cl)cc(-c2ccccc2)cc1Cl)C(=O)O (stereo partly drawn)
< 1000	Cc1cccc(Cl)c1C(=O)N[C@@H](CNC(=O)CNC(=O)c1cccc(NC(=N)N)c1)C(=O)O
< 100	O=C(CNC(=O)c1cccc(NC2=NCC(F)CN2)c1)NC[C@H](NC(=O)c1c(Cl)cc(N2CCOCC2)cc1Cl)C(=O)O (stereo partly drawn)
< 100	O=C(CNC(=O)c1cccc(NC2=NCC(F)CN2)c1)NC[C@H](NC(=O)c1c(Cl)cc(-c2ccc3cn[nH]c3c2)cc1Cl)C(=O)O (stereo partly drawn)
< 100	O=C(CNC(=O)c1cccc(NC2=NCC(F)(F)CN2)c1)NC[C@H](NC(=O)c1c(Cl)cc(-c2ccccc2)cc1Cl)C(=O)O
< 100	O=C(CNC(=O)c1cccc(NC2=NCC(F)(F)CN2)c1)NC[C@H](NC(=O)c1c(Cl)cc(N2CCOCC2)cc1Cl)C(=O)O
< 100	O=C(CNC(=O)c1cccc(NC2=NCCCO2)c1)NC[C@H](NC(=O)c1c(Cl)cc(-c2ccccc2)cc1Cl)C(=O)O
< 50000	COc1ccc(Nc2cccc(C(=O)NCC(=O)NC[C@H](NC(=O)c3c(Cl)cccc3Cl)C(=O)O)c2)nc1
101	C[C@@H](NC(=O)c1cccc(NC2=NCC(F)CN2)c1)C(=O)NC[C@H](NC(=O)c1c(Cl)cc(-c2ccccc2)cc1Cl)C(=O)O (stereo partly drawn)
< 1000	N=C(N)Nc1ccc2c(c1)C(NCC(=O)NC[C@H](NC(=O)c1c(Cl)cccc1Cl)C(=O)O)CCO2 (stereo partly drawn)
